# Measured values taken from ChEMBL document CHEMBL5365523, “Design of a structure-activity relationship model of vitamin K epoxide reductase (VKORC1) inhibitors combining chemical synthesis of new compounds, enzymatic assays and molecular modelling” (Bioorg Med Chem, 2023).
# Target: Vitamin K epoxide reductase complex subunit 1 (Homo sapiens, UniProt Q9BQB6)
# Assay: Inhibition of recombinant human wild-type VKORC1 expressed in Pichia pastoris membrane incubated for 30 mins in presence of presence of dithiothreitol by LC-APCI/MS/MS analysis
# Format: cell membranes
# Chain of Vitamin K epoxide reductase complex subunit 1 (Q9BQB6 whole entry, one chain of several): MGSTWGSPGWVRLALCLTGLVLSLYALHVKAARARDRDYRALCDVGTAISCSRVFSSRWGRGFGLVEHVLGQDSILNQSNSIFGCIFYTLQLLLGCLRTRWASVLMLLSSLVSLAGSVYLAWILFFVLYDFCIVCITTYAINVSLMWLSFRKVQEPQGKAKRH
row,SMILES,IC50
1,COc1cccc(Cc2c(O)c3ccccc3oc2=O)c1,5530 nM
2,O=c1oc2ccccc2c(O)c1Cc1ccc2c(c1)OCO2,873 nM
3,CC(c1ccccc1)c1c(O)c2ccccc2oc1=O (stereo not given),1530 nM
4,O=c1oc2ccccc2c(O)c1Cc1cccnc1,23900 nM
5,O=c1oc2ccccc2c(O)c1Cc1ccc(Br)cc1,643 nM
6,CSc1ccc(Cc2c(O)c3ccccc3oc2=O)cc1,527 nM
7,COc1ccc(Cc2c(O)c3ccccc3oc2=O)cc1,2720 nM
8,CC(C)=CCC/C(C)=C\CC/C(C)=C\Cc1c(O)c2ccccc2oc1=O,98 nM
9,O=c1oc2ccccc2c(O)c1Cc1ccc(C(F)(F)F)cc1,498 nM
10,O=c1oc2ccccc2c(O)c1C1CC(c2ccc(-c3ccc(Br)cc3)cc2)Cc2ccccc21 (stereo not given) [BRODIFACOUM],150 nM
11,CC(C)=CCc1c(O)c2ccccc2oc1=O [ISOPRENYLCOUMARIN],79000 nM
12,CC(O)CC(c1ccccc1)c1c(O)c2ccccc2oc1=O (stereo not given) [WARFARIN ALCOHOL],12500 nM

# Tested on: not listed separately
# Assay: Metabolic stability in rat hepatocytes assessed as half life
# Format: ADME, cell-based, Hepatocyte
row,SMILES,half-life
1,O=c1oc2ccccc2c(O)c1C1CC(c2ccc(OCc3ccc(C(F)(F)F)cc3)cc2)Cc2ccccc21 (stereo not given),215 days
2,O=c1oc2ccccc2c(O)c1C1CC(c2ccc(-c3ccccc3)cc2)Cc2ccccc21 (stereo not given),118 days
3,O=c1oc2ccccc2c(O)c1C(CC(O)c1ccc(-c2ccc(Br)cc2)cc1)c1ccccc1 (stereo not given) [BROMODIOLONE],170 days
